The numbers were not newly measured in patent US8404645B2, “Stable formulations of amylin and its analogues” (Novo Nordisk AS, priority 2007, dated 2013), which cites them from elsewhere.

Where no end group is shown, it is not given here.

The conditions of the data set: treated test animals; provoking marked hyperlactemia followed by hyperglycemia.
For Arg18 Pro25 Pro28-h-amylin, the “Amylin activity in vivo” value is “show amylin activity in vivo”.
“Pro28-h-amylin (KCNTATCATQRLANFLVHSSNNFGAILPSTNVGSNTY; ends and bridges not checked; cysteine pairing not given here; UniProt P10997 34-70, looked up, variant S28P) [human amylin analog, Pro at position 28]”: the “Amylin activity in vivo” value is reported as “show amylin activity in vivo”.
As for Arg18 Pro25 Pro 28-des-Lys1-h-amylin, the “Amylin activity in vivo” value was “show amylin activity in vivo”.
With Pro25 Val26 Pro 28 Pro29-h-amylin, the “Amylin activity in vivo” value was “show amylin activity in vivo”.
Regarding des-Lys1-h-amylin, the “Amylin activity in vivo” value is recorded as “show amylin activity in vivo”.
